According to patent publication US20250339415A1, “DISULFIDE COMPOUNDS AS MEDICAMENTS” (CYTACOAT AB, priority 2021, published 2025):
Several values for one entry are separate records, joined by “and”; a condition that tells them apart may be missing. Equal entries are not always repeated. Structures can show the parent of a compound that is named as a salt.

Legend:
S. aureus [1] = assay: Combination therapy: Gentamycin with PDEA, visible growth; type: cell-based; conditions: Gentamycin 0 μg/ml
Method: (§1) Different concentrations of Gentamycin in Mueller Hinton were prepared in 3 different concentrations of PDEA. E. coli and S. aureus were inoculated (10^5) and were incubated O/N.
(§2) Readouts were “Clear” and “Foggy”.

E. coli [2] = assay: as above; type: cell-based; conditions: Gentamycin 0 μg/ml
Method: as §1, §2

5637 cells = assay: Cancer cell viability assay (XTT); type: cell-based, human; conditions: for % cell survival / Absorbance unit / Absorbance unit - Blank: triplicate, (hydrochloride)
Method: (§3) Two types of human uroepithelial cancer cells (124 and 5637) were tested in an XTT assay. “T24” cells were cultured in McCoy's 5A (Modified) Medium, Catalog number: 16600082 from GIBCO. “5637” cells were cultured in RPMI 1640 Medium, Catalog number: 21875034 from GIBCO. Different concentrations of 2-(Pyridyldithio)ethylamine (hydrochloride) (PDEA) (CAS: 106139-15-5): 12.5, 25, 50, 100 and 200 μM, were prepared in each cell culture medium.
(§4) 1. 5×10^5 cells were seeded into 24-well plate overnight at 37-degree C. in 5% CO2.
(§5) 2. 80% confluent cells were treated with 200 μl medium with different concentrations of PDEA and the control.
(§6) 3. After 24 hrs, medium (MacCoy's 5a for T24, RPMI for 5637) was removed and cells were washed 2 times with 200 μl of pre-warmed PBS/well. 200 μl (96-well) of pre-prepared fresh medium containing XTT-menadione to wells were added (mentioned below).
(§7) 4. Cells were incubated for at least 3 h at 37-degree C. Medium with XTT only in empty wells were served as background control.
(§8) 5. The supernatant was transferred to 96-well plate and the concentration were measured at 450 nm and 690 nm. 690 nm was used as a background measurement and subtracted from 450 nm value.
(§9) Menadione (172.18 g/mol, light sensitive): dissolve 1 mg/ml in absolute ethanol. XTT: 1 mg/ml dissolve in PBS, 0.2 μm filtrate sterilised, store at −20° C. (Sigma X4626). Pre-warm to 37° C. before use.
(§10) Prepare solution: Add 2.15 μl of menadione/ml (final concentration 12.5 μM 0 2.15 mg/l) to 1 ml of XTT directly before use. Prepare XTT-menadione solution equal to 20% of the culture medium volume to be tested.
(§11) Results are shown below and represented graphically in FIGS. 1 and 2. “Blank” is cell culture medium only.

T-24 cells = assay: Cancer cell viability assay (XTT); type: cell-based, human; conditions: for % cell survival / Absorbance unit / Absorbance unit - Blank: triplicate, (hydrochloride)
Method: as §3, §4, §5, §6, §7, §8, §9, §10, §11

S. aureus [3] = assay: Combination therapy: Fradiomycin with PDEA, visible growth; type: cell-based; conditions: Fradiomycin 0 μg/ml
Method: (§12) Different concentrations of Fradiomycin in Mueller Hinton were prepared in 3 different concentrations of PDEA. E. coli and S. aureus were inoculated (10^5) and were incubated overnight. Readouts were “Clear” and “Foggy”.

E. coli [4] = assay: as above; type: cell-based; conditions: Fradiomycin 0 μg/ml
Method: as §12

`NCCSSc1ccccn1` [PDEA, 2-(Pyridyldithio)ethylamine (hydrochloride)] was tested, and the “Visible growth readout (Clear/Foggy)” value (S. aureus [1]; PDEA 0.0125 mM) was “Foggy”, the “Visible growth readout (Clear/Foggy)” value (S. aureus [1]; PDEA 0.025 mM) was “Foggy” and the “Visible growth readout (Clear/Foggy)” value (S. aureus [1]; PDEA 0.05 mM) was “Foggy”. For the same molecule, the “Visible growth readout (Clear/Foggy)” value (E. coli [2]; PDEA 0.0125 mM) was “Foggy”, the “Visible growth readout (Clear/Foggy)” value (E. coli [2]; PDEA 0.025 mM) was “Foggy” and the “Visible growth readout (Clear/Foggy)” value (E. coli [2]; PDEA 0.04 mM) was “Clear”. For the same molecule, the “% cell survival” value (5637 cells; 12.5 μM) was 104.6875% and 96.65% and 91.2594%, the Absorbance unit (5637 cells; 12.5 μM) was 1.229 and 1.224 and 1.119 and the “Absorbance unit - Blank” value (5637 cells; 12.5 μM) was 1.072 and 1.069 and 0.971. The “% cell survival” value (5637 cells; 25 μM) was 109.082% and 103.9783% and 102.2556%, the Absorbance unit (5637 cells; 25 μM) was 1.274 and 1.305 and 1.236 and the “Absorbance unit - Blank” value (5637 cells; 25 μM) was 1.117 and 1.15 and 1.088. The “% cell survival” value (5637 cells; 50 μM) was 115.0391% and 99.55% and 123.5902%, the Absorbance unit (5637 cells; 50 μM) was 1.335 and 1.256 and 1.463 and the “Absorbance unit - Blank” value (5637 cells; 50 μM) was 1.178 and 1.101 and 1.315. The “% cell survival” value (5637 cells; 100 μM) was 83.4% and 52.8% and 57.42%, the Absorbance unit (5637 cells; 100 μM) was 1.011 and 0.739 and 0.759 and the “Absorbance unit - Blank” value (5637 cells; 100 μM) was 0.854 and 0.584 and 0.611. The “% cell survival” value (5637 cells; 200 μM) was 3.613% and 3.436% and 4.793%, the Absorbance unit (5637 cells; 200 μM) was 0.194 and 0.193 and 0.199 and the “Absorbance unit - Blank” value (5637 cells; 200 μM) was 0.037 and 0.038 and 0.051. The cytotoxicity at 100 µM (5637 cells; Homo sapiens, 100 μM PDEA, 24 hrs, read-out: cell viability reduced by) was 17 to 47%, the cytotoxicity at 200 µM (5637 cells; Homo sapiens, 200 μM PDEA, 24 hrs, read-out: cell viability reduced by) was 95 to 100% and the “% cell survival” value (T-24 cells; 12.5 μM) was 99.37% and 98.6% and 99.88%. For the same molecule, the Absorbance unit (T-24 cells; 12.5 μM) was 1.63 and 1.659 and 1.884, the “Absorbance unit - Blank” value (T-24 cells; 12.5 μM) was 1.429 and 1.483 and 1.686 and the “% cell survival” value (T-24 cells; 25 μM) was 100.1391% and 95.0133% and 97.81%. The Absorbance unit (T-24 cells; 25 μM) was 1.641 and 1.605 and 1.849, the “Absorbance unit - Blank” value (T-24 cells; 25 μM) was 1.44 and 1.429 and 1.651 and the “% cell survival” value (T-24 cells; 50 μM) was 76.43% and 73.67% and 89.6327%. For the same molecule, the Absorbance unit (T-24 cells; 50 μM) was 1.3 and 1.284 and 1.711, the “Absorbance unit - Blank” value (T-24 cells; 50 μM) was 1.099 and 1.108 and 1.513 and the “% cell survival” value (T-24 cells; 100 μM) was 65.3% and 80.52% and 62.09%. For the same molecule, the Absorbance unit (T-24 cells; 100 μM) was 1.14 and 1.387 and 1.246, the “Absorbance unit - Blank” value (T-24 cells; 100 μM) was 0.939 and 1.211 and 1.048 and the cytotoxicity at 50 µM (T-24 cells; Homo sapiens, T-24, 50 μM PDEA, 24 hrs, read-out: cell viability reduced by) was 10 to 26%. For the same molecule, the cytotoxicity at 200 µM (T-24 cells; Homo sapiens, T-24, 200 μM PDEA, 24 hrs, read-out: cell viability reduced by) was 83 to 100%, the visible growth readout (S. aureus [3]; PDEA 0.0125 mM) was “Foggy” and the visible growth readout (S. aureus [3]; PDEA 0.025 mM) was “Foggy”. For the same molecule, the visible growth readout (S. aureus [3]; PDEA 0.05 mM) was “Foggy”, the visible growth readout (E. coli [4]; PDEA 0.0125 mM) was “Foggy” and the visible growth readout (E. coli [4]; PDEA 0.025 mM) was “Foggy”. The visible growth readout (E. coli [4]; PDEA 0.05 mM) was “Clear”.
